The supplement of paper PMC13380429

What was measured:
Settings in all cases: 72 h
HepG2 [1] = test: relative viability EC50 (midpoint between 100% and the lowest measured viability); higher = less toxic
HepG2 [2] = test: cell viability relative to DMSO; higher = less toxic
U2OS [3] = test: as above
Calu-3 [4] = test: as above
Vero E6 [5] = test: as above
Caco-2 [6] = test: as above
HepG2 [7] = test: drug sensitivity score (DSS) for viability; higher = more toxic; extreme values may be limits of the assay
U2OS [8] = test: as above
Calu-3 [9] = test: as above
Vero E6 [10] = test: as above
Caco-2 [11] = test: as above
U2OS [12] = test: relative viability EC50 (midpoint between 100% and the lowest measured viability); higher = less toxic
Vero E6 [13] = test: as above
Caco-2 [14] = test: as above

SMILES	relative viability EC50 (HepG2 [1])	cell viability (HepG2 [2]; 1 nM)	cell viability (HepG2 [2]; 10 nM)	cell viability (HepG2 [2]; 100 nM)	cell viability (HepG2 [2]; 1000 nM)	cell viability (HepG2 [2]; 10000 nM)	cell viability (U2OS [3]; 1 nM)	cell viability (U2OS [3]; 10 nM)	cell viability (U2OS [3]; 100 nM)	cell viability (U2OS [3]; 1000 nM)	cell viability (U2OS [3]; 10000 nM)	cell viability (Calu-3 [4]; 1 nM)	cell viability (Calu-3 [4]; 10 nM)	cell viability (Calu-3 [4]; 100 nM)	cell viability (Calu-3 [4]; 1000 nM)	cell viability (Calu-3 [4]; 10000 nM)	cell viability (Vero E6 [5]; 1 nM)	cell viability (Vero E6 [5]; 10 nM)	cell viability (Vero E6 [5]; 100 nM)	cell viability (Vero E6 [5]; 1000 nM)	cell viability (Vero E6 [5]; 10000 nM)	cell viability (Caco-2 [6]; 1 nM)	cell viability (Caco-2 [6]; 10 nM)	cell viability (Caco-2 [6]; 100 nM)	cell viability (Caco-2 [6]; 1000 nM)	cell viability (Caco-2 [6]; 10000 nM)	drug sensitivity score (HepG2 [7])	drug sensitivity score (U2OS [8])	drug sensitivity score (Calu-3 [9])	drug sensitivity score (Vero E6 [10])	drug sensitivity score (Caco-2 [11])	relative viability EC50 (U2OS [12])	relative viability EC50 (Vero E6 [13])	relative viability EC50 (Caco-2 [14])
CCc1cc(-c2[nH]nc(C)c2-c2ccc3c(c2)OCCO3)c(O)cc1O	1.68 µM	94.7%	91.1%	104%	81.1%	11.1%	99.2%	94.9%	98.3%	99.7%	65.6%	93.2%	94.6%	101%	89.7%	58.8%	99.4%	104%	101%	95.9%	67.9%	103%	92%	98%	89.7%	53%	8	1.6	3.7	2.1	4.1			
O=C(NOCC1CC1)c1ccc(F)c(F)c1Nc1ccc(I)cc1Cl	0.277 µM	96.9%	89.3%	84.2%	31.6%	19.4%	101%	97.1%	94.9%	91.4%	85.3%						94.5%	98.5%	84.4%	65.9%	50.6%	97.4%	94.6%	89.3%	75.3%	65.6%	14.6	0.4		7.9	5.1	> 10 µM		
CC(C)[C@@H](C(=O)Nc1nccs1)c1ccc(Cl)cc1 [4-CMTB]		95.7%	95.4%	94.1%	99.7%	63.3%	104%	108%	106%	102%	85.5%	111%	107%	102%	97.8%	68.1%	107%	107%	98%	96.4%	92.9%						1.8	0.1	1.8	0		> 10 µM	> 10 µM	
COC(=O)N[C@@H](C)CNc1nccc(-c2cn(C(C)C)nc2-c2cc(Cl)cc(NS(C)(=O)=O)c2F)n1 [Encorafenib (LGX818)]	0.37 µM	96.2%	91.7%	79.7%	38.4%	11.1%	101%	104%	106%	94.2%	82%						106%	106%	109%	116%	71.6%	103%	89.5%	97%	88.4%	69.5%	14.2	1.1		0.7	2.4	> 10 µM		
Cc1ccc(-c2nn(C(C)(C)CNC(=O)c3ncccc3C)c3ncnc(N)c23)cc1 [WEHI-345-analog]	2.49 µM	109%	97.5%	99.7%	94.6%	34.2%	98.3%	108%	94.3%	104%	38.4%	99.6%	110%	86%	97.8%	52.2%	100%	97.7%	99.8%	95.7%	37.2%	96.3%	100%	95.5%	101%	58.9%	4.5	3	2.8	4.1	2	3.51 µM	2.62 µM	
CCOC(=O)OC(C)OC1=C(C(=O)Nc2ccccn2)N(C)S(=O)(=O)c2ccccc21 (stereo unspecified) [ampiroxicam]	> 10 µM	91.9%	102%	101%	101%	103%	97.2%	102%	93.9%	98%	95%											94.6%	99.9%	86.5%	96.9%	97.3%	0	0			0	> 10 µM		> 10 µM
O=C1[O][SbH]23[O]C(=O)C([O]2)C2[O][SbH]4([O]C(=O)C([O]4)C1[O]3)[O]C2=O [antimonyl]	2.48 µM	96.3%	105%	101%	95.7%	48%	95.6%	97.1%	97.6%	96.5%	84.8%						98.7%	103%	106%	107%	102%	106%	94.7%	99.2%	84.7%	71.5%	3.4	0.5		0	2.8	> 10 µM	> 10 µM	
CCN(CC)CCOC(=O)C1(c2ccccc2)CCCC1 [caramiphen]																											0	0	0	0				
O=c1c(-c2ccc(O)cc2)coc2cc(O)ccc12 [daidzein]																											0	0	0	0				
O=c1oc2ccccc2c(O)c1Cc1c(O)c2ccccc2oc1=O [dicoumarol]																												0	0	0				
CN[C@@H](C)[C@H](O)c1ccccc1 [ephedrine]																											0	0		0				
COC(=O)[C@@H]1CC2=CC(=O)CC[C@]2(C)[C@@]23O[C@@H]2C[C@@]2(C)[C@@H](CC[C@@]24CCC(=O)O4)[C@H]13 [eplerenone]																	99.7%	100%	99.1%	101%	95%	98.4%	101%	85.8%	92.8%	98.4%				0	0		> 10 µM	> 10 µM
Oc1ccc(CC2NCCc3cc(O)c(O)cc32)cc1 (stereo unspecified) [higenamine]	1.56 µM	105%	97.1%	99.3%	83.3%	32.6%	98.1%	103%	97.5%	98.1%	36.6%						104%	99.2%	102%	100%	48.6%	97.6%	102%	94.9%	86.2%	59.4%	6.3	3.7		2.7	3.5	2.95 µM	3.22 µM	
O=S(=O)(c1cccc2c(O)nccc12)N1CCCNCC1 [hydroxyfasudil]		96.6%	97.7%		97.7%	98.3%	95.4%	101%	96.4%		102%	91.6%	94.1%	110%	119%	136%	95.7%	95.8%	96.4%	90.3%	107%	98.7%	99.3%	94%	107%	109%	0	0	0	0	0			
CC(COc1ccccc1)NC(C)C(O)c1ccc(O)cc1 (stereo unspecified) [isoxsuprine]																											0		0	0				
COC(=O)Nc1nc2cc(C(=O)c3ccccc3)ccc2[nH]1 [mebendazole]	0.387 µM	97.5%	109%	102%	44.3%	40.9%	95.5%	102%	95.5%	66%	41.2%	81.1%	107%	95%	84.6%	61.3%	111%	97.6%	102%	84.7%	35.6%	91.6%	104%	88.4%	67.2%	55.6%	10.1	7.3	3.4	5.9	7	0.774 µM	1.59 µM	
COc1cc(NC(=O)Nc2cccc(CNC(=O)O[C@H]3CCOC3)c2)ccc1-c1cnco1 [merimepodib]																											4.3	3.7	3.6	0				
CN(C)C(=O)Oc1cccc([N+](C)(C)C)c1 [neostigmine]							97.8%	95.7%	102%	97.9%	100%						91.1%	93.1%	90.6%	94.8%	112%	97.2%	91.9%	100%	93.7%	99.2%		0		0	0	> 10 µM	> 10 µM	> 10 µM
Nc1ccc(C(=O)Oc2ccccc2)c(O)c1 [phenyl-aminosalicylate]																											1	0	0	0				
CCCc1cc(=O)[nH]c(=S)[nH]1 [propylthiouracil]																												0	0	0				
